From ChEMBL document CHEMBL4616709, “P2Y14 Receptor Antagonists Reverse Chronic Neuropathic Pain in a Mouse Model” (ACS Med Chem Lett, 2020)

Experiments:
Mus musculus [1] = assay: Protection ratio of antinociceptive activity in ICR mouse model of chronic constriction injury-induced neuropathic pain assessed as inhibition of mechanical allodynia at 10 umol/kg, ip administered 7 days post-surgery and measured after 3 hrs to 1 hrs post-dose by Von Frey assay; assay type: functional
Mus musculus [2] = assay: Antinociceptive activity in ICR mouse model of chronic constriction injury-induced neuropathic pain assessed as inhibition of mechanical allodynia at 10 umol/kg, ip administered 7 days post-surgery and measured after 0.5 hrs post-dose by Von Frey assay relative to control; assay type: functional
Mus musculus [3] = assay: Antinociceptive activity in ICR mouse model of chronic constriction injury-induced neuropathic pain assessed as inhibition of mechanical allodynia at 10 umol/kg, ip administered 7 days post-surgery and measured after 3 hrs post-dose by Von Frey assay relative to control; assay type: functional
Mus musculus [4] = assay: Antinociceptive activity in ICR mouse model of chronic constriction injury-induced neuropathic pain assessed as inhibition of mechanical allodynia at 10 umol/kg, ip administered 7 days post-surgery and measured after 2 hrs post-dose by Von Frey assay relative to control; assay type: functional
Mus musculus [5] = assay: Antinociceptive activity in ICR mouse model of chronic constriction injury-induced neuropathic pain assessed as inhibition of mechanical allodynia at 10 umol/kg, ip administered 7 days post-surgery and measured after 5 hrs post-dose by Von Frey assay relative to control; assay type: functional
Mus musculus [6] = assay: Antinociceptive activity in ICR mouse model of chronic constriction injury-induced neuropathic pain assessed as inhibition of mechanical allodynia at 10 umol/kg, ip administered 7 days post-surgery and measured after 1 hr post-dose by Von Frey assay relative to control; assay type: functional
Mus musculus [7] = assay: Effect on nociception on contralateral paw in ICR mouse model of chronic constriction injury-induced neuropathic pain assessed as paw withdrawal threshold at 10 umol/kg, ip administered 7 days post-surgery and measured after 30 mins to 3 hrs post-dose by Von Frey assay; assay type: organism-based; settings: in vivo
Mus musculus [8] = assay: Antinociceptive activity in ICR mouse model of chronic constriction injury-induced neuropathic pain assessed as inhibition of mechanical allodynia at 1 umol/kg, ip administered 7 days post-surgery and measured after 3 hrs post-dose by Von Frey assay relative to control; assay type: functional
Mus musculus [9] = assay: Antinociceptive activity in ICR mouse model of chronic constriction injury-induced neuropathic pain assessed as inhibition of mechanical allodynia at 1 umol/kg, ip administered 7 days post-surgery and measured after 1 hr post-dose by Von Frey assay relative to control; assay type: functional
Cannabinoid receptor 1 = Cannabinoid receptor 1 (Rattus norvegicus, UniProt P20272); assay: Antagonist activity at rat brain CB1 receptor expressed in HEK-Flp-In cells in presence of [3H]CP55940 measured after overnight incubation by Bright-Glo luminescence assay; assay type: cell-based
Mus musculus [10] = assay: Antinociceptive activity in ICR mouse model of chronic constriction injury-induced neuropathic pain assessed as inhibition of mechanical allodynia at 1 umol/kg, ip administered 7 days post-surgery and measured after 5 hrs post-dose by Von Frey assay relative to control; assay type: functional
Mus musculus [11] = assay: Antinociceptive activity in ip dosed ICR mouse model of chronic constriction injury-induced neuropathic pain assessed as inhibition of mechanical allodynia administered 7 days post-surgery and measured after 1 hr post-dose by Von Frey assay; assay type: functional
Mus musculus [12] = assay: Antinociceptive activity in ICR mouse model of chronic constriction injury-induced neuropathic pain assessed as inhibition of mechanical allodynia at 1 umol/kg, ip administered 7 days post-surgery and measured after 0.5 hrs post-dose by Von Frey assay relative to control; assay type: functional
Mus musculus [13] = assay: Antinociceptive activity in ICR mouse model of chronic constriction injury-induced neuropathic pain assessed as inhibition of mechanical allodynia at 3 umol/kg, ip administered 7 days post-surgery and measured after 3 hrs post-dose by Von Frey assay relative to control; assay type: functional
Mus musculus [14] = assay: Antinociceptive activity in ICR mouse model of chronic constriction injury-induced neuropathic pain assessed as inhibition of mechanical allodynia at 3 umol/kg, ip administered 7 days post-surgery and measured after 2 hrs post-dose by Von Frey assay relative to control; assay type: functional
Mus musculus [15] = assay: Antinociceptive activity in ICR mouse model of chronic constriction injury-induced neuropathic pain assessed as inhibition of mechanical allodynia at 1 umol/kg, ip administered 7 days post-surgery and measured after 2 hrs post-dose by Von Frey assay relative to control; assay type: functional
Mus musculus [16] = assay: Antinociceptive activity in ICR mouse model of chronic constriction injury-induced neuropathic pain assessed as inhibition of mechanical allodynia at 3 umol/kg, ip administered 7 days post-surgery and measured after 5 hrs post-dose by Von Frey assay relative to control; assay type: functional
Mus musculus [17] = assay: Antinociceptive activity in ICR mouse model of chronic constriction injury-induced neuropathic pain assessed as inhibition of mechanical allodynia at 3 umol/kg, ip administered 7 days post-surgery and measured after 1 hr post-dose by Von Frey assay relative to control; assay type: functional
Cannabinoid receptor 2 = Cannabinoid receptor 2 (Rattus norvegicus, UniProt Q9QZN9); assay: Antagonist activity at rat brain CB2 receptor expressed in HEK-Flp-In cells in presence of [3H]CP55940 measured after overnight incubation by Bright-Glo luminescence assay; assay type: cell-based
Mus musculus [18] = assay: Antinociceptive activity in ICR mouse model of chronic constriction injury-induced neuropathic pain assessed as inhibition of mechanical allodynia at 3 umol/kg, ip administered 7 days post-surgery and measured after 0.5 hrs post-dose by Von Frey assay relative to control; assay type: functional

Sequence of Cannabinoid receptor 2 (Q9QZN9 whole entry, looked up): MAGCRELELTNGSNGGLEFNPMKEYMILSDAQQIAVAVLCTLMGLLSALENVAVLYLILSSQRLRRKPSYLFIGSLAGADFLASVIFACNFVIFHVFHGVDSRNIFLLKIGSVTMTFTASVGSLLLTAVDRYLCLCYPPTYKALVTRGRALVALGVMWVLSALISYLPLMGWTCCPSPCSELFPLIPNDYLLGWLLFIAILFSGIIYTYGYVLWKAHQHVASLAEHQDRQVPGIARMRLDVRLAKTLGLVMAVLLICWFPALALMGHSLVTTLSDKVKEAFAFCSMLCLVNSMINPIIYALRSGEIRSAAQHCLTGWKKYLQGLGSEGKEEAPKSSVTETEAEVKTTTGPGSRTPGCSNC
Sequence of Cannabinoid receptor 1 (P20272 whole entry): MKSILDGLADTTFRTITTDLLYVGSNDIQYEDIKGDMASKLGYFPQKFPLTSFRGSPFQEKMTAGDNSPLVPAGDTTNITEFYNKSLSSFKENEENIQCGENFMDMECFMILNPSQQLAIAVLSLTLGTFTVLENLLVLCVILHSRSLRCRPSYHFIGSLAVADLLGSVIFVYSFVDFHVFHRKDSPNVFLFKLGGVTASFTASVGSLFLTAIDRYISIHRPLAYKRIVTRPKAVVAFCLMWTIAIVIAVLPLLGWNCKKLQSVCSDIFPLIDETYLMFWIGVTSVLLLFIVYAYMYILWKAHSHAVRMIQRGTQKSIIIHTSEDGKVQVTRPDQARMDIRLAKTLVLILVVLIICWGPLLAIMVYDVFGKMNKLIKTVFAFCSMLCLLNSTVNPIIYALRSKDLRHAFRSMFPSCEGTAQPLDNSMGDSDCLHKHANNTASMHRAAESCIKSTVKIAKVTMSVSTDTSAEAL

| IC50 (Cannabinoid receptor 1) [µM] | IC50 (Cannabinoid receptor 2) [µM] | SMILES | Ratio (Mus musculus [1]) | inhibition in vivo at 10 µmol/kg (Mus musculus [2]) [%] | inhibition in vivo at 10 µmol/kg (Mus musculus [3]) [%] | inhibition in vivo at 10 µmol/kg (Mus musculus [4]) [%] | inhibition in vivo at 10 µmol/kg (Mus musculus [5]) [%] | inhibition in vivo at 10 µmol/kg (Mus musculus [6]) [%] | Activity (Mus musculus [7]) | inhibition in vivo at 1 µmol/kg (Mus musculus [8]) [%] | inhibition in vivo at 1 µmol/kg (Mus musculus [9]) [%] | inhibition in vivo at 1 µmol/kg (Mus musculus [10]) [%] | ED50 (Mus musculus [11]) [µmol/kg] | inhibition in vivo at 1 µmol/kg (Mus musculus [12]) [%] | inhibition in vivo at 3 µmol/kg (Mus musculus [13]) [%] | inhibition in vivo at 3 µmol/kg (Mus musculus [14]) [%] | inhibition in vivo at 1 µmol/kg (Mus musculus [15]) [%] | inhibition in vivo at 3 µmol/kg (Mus musculus [16]) [%] | inhibition in vivo at 3 µmol/kg (Mus musculus [17]) [%] | inhibition in vivo at 3 µmol/kg (Mus musculus [18]) [%] |
| --- | --- | --- | --- | --- | --- | --- | --- | --- | --- | --- | --- | --- | --- | --- | --- | --- | --- | --- | --- | --- |
|  |  | C#CCCCCN1CCC(c2ccc(-c3cc(C(=O)O)cc4cc(-c5ccc(C(F)(F)F)cc5)ccc34)cc2)CC1 | 0.13 | 52.4 | 9.6 | 42.7 | 0 | 75.9 |  |  |  |  |  |  |  |  |  |  |  |  |
|  |  | O=C(O)c1cc(-c2ccc(C3CCNCC3)cc2)cc(-c2cn(-c3ccc(C(F)(F)F)cc3)nn2)c1 | 0.34 - 0.63 | 70.7 | 55.1 | 71.4 | 6.7 | 86.8 | Non-Toxic |  |  |  |  |  |  |  |  |  |  |  |
|  |  | CCC(=O)N1CCC(c2ccc(-c3cc(C(=O)O)cc4cc(-c5ccc(C(F)(F)F)cc5)ccc34)cc2)CC1 | 0.72 - 0.92 | 32.9 | 55.7 | 71.6 | 5.6 | 77.2 |  |  |  |  |  |  |  |  |  |  |  |  |
|  |  | NCCCNC(=O)c1ccc(-c2cc(C(=O)O)cc(-n3cc(-c4ccc(C(F)(F)F)cc4)nn3)c2)s1 | 0.34 - 0.63 | 81 | 30.9 | 74 | 10 | 91.5 |  |  |  |  |  |  |  |  |  |  |  |  |
|  |  | CC(=O)N1CCC(c2ccc(-c3cc(C(=O)O)cc4cc(-c5ccc(C(F)(F)F)cc5)ccc34)cc2)CC1 |  |  |  |  |  |  | Non-Toxic |  |  |  |  |  |  |  |  |  |  |  |
| > 50 | > 50 | O=C(O)c1cc(-c2ccc(C3CCNCC3)cc2)c2ccc(-c3ccc(C(F)(F)F)cc3)cc2c1 [PPTN] |  | 87.9 | 78.6 | 96.4 | 21.3 | 100 | Non-Toxic | 4.7 | 19.9 | 4.7 | 1.6 | 10 | 64.7 | 76.9 | 10 | 8.7 | 79.3 | 62.9 |
|  |  | O=C(O)c1cc(-c2ccc(C3CCNCC3)cc2)cc(-n2cc(-c3ccc(C(F)(F)F)cc3)nn2)c1 |  | 52.4 | 31.9 | 57.2 | 12.7 | 67.4 |  | 8.7 | 18.7 | 8.7 | 3.5 | 8.7 | 35.6 | 44.6 | 18.7 | 0 | 53.3 | 44.6 |
|  |  | O=C(O)c1cc(O)c2ccc(-c3ccc(C(F)(F)F)cc3)cc2c1 | 0.34 - 0.63 | 23.4 | 35.2 | 59.8 | 0 | 64.2 | Non-Toxic |  |  |  |  |  |  |  |  |  |  |  |
